Measured values: patent publication US20180265915A1, “TRANSCRIPTION FACTOR DECOYS” (priority 2008, published 2018)
“Also recorded” adds a separate entry of the source.

Tests used:
E. coli [1] = assay: FabB TFD growth assay with cerulenin in LB, polymixin co-transfectant; assay type: cell-based, Escherichia coli
Procedure: For example, a FabB decoy which targets the regulation of genes essential for fatty acid synthesis may be tested against suitable strain, e.g. E. coli grown in e.g. Luria-Bertani LB media (1% [w/v] Bacto-tryptone, 0.5% [w/v] Yeast extract, 1% [w/v] NaCl) in the presence of an antibiotic which acts on the process of fatty acid synthesis, e.g. Cerulenin.
The effect of TFDs on the growth of E. coli bacterial cultures was measured as described in Example 4.1 with a few modifications: the media used was LB; the co-transfectant used was 40 nM polymixin, rather than gramicidin; the media was also supplemented with 10 μg/ml Cerulenin (CER). CER is an antibiotic that acts on fatty acid synthesis.

E. coli [2] = assay: FabB decoy growth assay with cerulenin in 96-well plate; assay type: cell-based, Escherichia coli; settings: Rich media supplemented with 1 μg/ml cerulenin
Procedure: The decoy was prepared as described in Example 1.1 and used at various concentrations to transfect a well of a 96-well plate containing 200 μl of Rich media (10 g Tryptone, 5 g NaCl, 1 g Yeast extract per litre and supplemented with 0.2% glucose and 0.4% acetate, final concentrations) supplemented with 1 μg/ml cerulenin (Sigma). The plates were incubated at 37° C. with shaking and absorbance readings (at 595 nM) were taken using a plate reader. All data points were performed in triplicate.

S. aureus [3] = assay: Growth studies in 96-well plates (DOTAP/Gramicidin transfection); assay type: cell-based, Staphylococcus aureus; settings: 10 nM TFD, DOTAP, 60 nM Gramicidin
Procedure: Cholesterol/Cy5-labeled decoy polynucleotides were prepared as in section 5.1. Typically 1 Lg of TFD was then complexed with 0.3 μl of the liposomal transfection reagent DOTAP (Roche) and incubated at room temperature for 10 min. The assays to determine their effect on growth of bacterial cells were performed using 96 well plates, each well containing 200 μl of broth consisting of BHI media (from Becton Dickinson), which is not iron-limited, supplemented with 60 nM Gramicidin (from Sigma Corporation. Cat# G5002) or iron-depleted media (NRPMI) similarly supplemented with Gramicidin. The method for iron-depletion is described in full elsewhere (Science (2004) 305:1626-1628). 1 μl of various concentrations of a Cholesterol/Cy5-labeled decoy complexed with TFD were added to each well and their effect on bacterial growth of S. aureus monitored by measuring absorbance of the broth at intervals during incubation. The plates were incubated at 37° C. with shaking and absorbance readings (at 450 nM) were taken using a plate reader. Several decoys were tested: Sig, fhu and SsaA.

S. aureus [4] = assay: Growth of S. aureus transfected by electroporation under conditions of stress; assay type: cell-based, Staphylococcus aureus; settings: BHI or LB media with 30 mM KOH, vs mock-electroporation or unrelated sequence
Procedure: For example, stress response can be induced in a suitable strain e.g. S. aureus by growing in, e.g. LB media under conditions of stress, e.g. alkali conditions. For example LB media containing KOH, e.g. at 30 mM may be used. Untreated bacteria grow well in this media, due to the induction of the stress response by the alkali conditions, whereas those treated with the SA_sigB decoy, targeting the regulation of sigB which is a major part of the regulatory response to stress, grow poorly.
Decoy polynucleotides were transfected into S. aureus by electroporation. Bacterial cells were prepared by standard methods. Briefy, cells were grown to early exponential phase in LB media at 37° C. as defined as reaching an Absorbance of 0.3 at […]. The cells were chilled to 4° C. and harvested by low speed centrifugation and washed three times in a similar volume of sterile, ice-cold 10% (v/v) glycerol. Finally the cells were resuspended in a tenth of their original volume in 10% glycerol. […] 200 μl of cells were aliquoted into wells of a 96 well plate that was incubated at 37° C. with moderate shaking, growth was monitored by measuring absorbance.

M. smegmatis = assay: WhiB7 decoy antibiotic sensitisation, growth in shake flasks; assay type: cell-based, Mycobacterium smegmatis; settings: 100 nM TFD; sub-inhibitory isoniazid (IZ) or rifampicin (RF); 9H11 + 10% ODAC, 37° C.
Procedure: A decoy polynucleotide containing the WhiB7 decoy sequence was prepared as described in Example 1.1 and various concentrations were used to transfect M. smegmatis grown in 20 ml of broth (in 200 ml shake flasks containing a wire baffle). The media used was 9H11 (Becton Dickinson) supplemented with 10% ODAC (Becton Dickinson) and sub-inhibitory concentrations of the antibiotics isoniazid (IZ) or rifampicin (RF). The flasks were incubated at 37° C. with shaking and at various intervals samples were withdrawn and their absorbance measured (to monitor cell growth). Flasks were either treated with 100 nM of the WhiB7 TFD (+) or treated with the negative control TFD (−).

In the case of “FabB TFD: decoy containing the binding site for the FadR regulator, SEQ ID NO: 6 (DNA TTTATTCCGAACTGATCGGACTTGTTCAGCGTACACGTGTTAGCTATCCTGCGTGCTTCA; transcription factor decoy, method of preparation not given here for this one, further chemistry not given here)”, the “sensitivity of E. coli to the action of cerulenin” value (E. coli [1]; 10 nM TFD, LB, 40 nM polymixin, 10 μg/ml Cerulenin) was “sensitises the bacteria to antibiotics (cerulenin); also recorded: rendered the bacteria sensitive to the action of cerulenin”, the “effect on cells at 20 ug/ml cerulenin” value (E. coli [1]; FabB TFD plus cerulenin) was “the cells are being killed by the synergenistic action” and the “growth of E. coli treated with the decoy versus untreated” value (E. coli [1]; LB media, Cerulenin 10 μg/ml) was “grow markedly more slowly and to lower final density”. For the same substance, the “growth of E. coli in broth (absorbance at 595 nM)” value (E. coli [2]) was “caused the cells to hardly grow at all”.

“SsaA TFD: contains the binding site for the two-component regulator WalR, SEQ ID NO: 8 (DNA ATTACAAATTTGTAACAGACTTATTTTA; transcription factor decoy, made by PCR or oligonucleotide ligation, further chemistry not given here; listed as Staphylococcus aureus)” was tested, and the “effect on bacterial growth in BHI medium (non-iron limiting)” value (S. aureus [3]) was “measurable delay in bacterial growth”, the “effect on bacterial growth in iron-limited media” value (S. aureus [3]; NRPMI) was “no effect on bacterial growth” and the “growth of S. aureus under conditions of stress” value (S. aureus [4]) was “capable of slowing the growth”.

In the case of “WhiB7 TFD: decoy with WhiB7 binding site, SEQ ID NO: 5, prepared by PCR with cholesterol/Cy5 primers (DNA TGGCCACGGATCCGGGTGACTGCGGGTCCGTGGCCT; PCR-made decoy including vector flanks, 5' cholesterol and Cy5 primer ends, further chemistry not given here)”, the “sensitivity of cells to the antibiotics tested (growth by absorbance)” value (M. smegmatis) was “rendered sensitive to both the antibiotics tested”.
